The source of these data is publication PMC11843613, “Further Optimization of the mGlu1 PAM VU6024578/BI02982816: Discovery and Characterization of VU6033685” (ACS Chemical Neuroscience, 2025).

Where two headings read alike, the source gives them in different places.

Data set [1] can be described thus: Plasma protein binding (c). The format is in vitro ADME, c (presumably cynomolgus). Conditions: cynomolgus monkey, pH 7.4, read-out: fu plasma (c). The method, then: page 13: at half log concentrations in DMSO were further diluted in assay buffer. The compounds or DMSO vehicle were added to cells and incubated for 2.5 min and an EC20 concentration of glutamate was added and incubated for 1 min. An ECmax concentration of glutamate was also added to cells that were incubated with DMSO vehicle to accurately calculate the EC20 calcium response. Data were normalized by subtracting the basal florescent peak before EC20 agonist addition from the maximal peak elicited by EC20 agonist and PAMs. Using GraphPad Prism 5.0, the concentration response curves were generated and the potencies of the mGlu1 PAMs were determined. DMPK Methods Plasma protein binding: The protein binding of each compound was determined in plasma via equilibrium dialysis employing RED Plates (ThermoFisher Scientific, Rochester, NY). Plasma was added to the 96 well plate containing test compound and mixed thoroughly for a final concentration of 5 µM. Subsequently, an aliquot of the plasma-compound mixture was transferred to the cis chamber (red) of the RED plate, with an phosphate buffer (25 mM, pH 7.4) in the trans chamber. The RED plate was sealed and incubated for 4 hours at 37°C with shaking. […] The in vitro half-life (T 1/2, min, Eq. 1), intrinsic clearance (CLint, mL/min/kg, Eq. 2) and subsequent predicted hepatic clearance (CLhep, mL/min/kg, Eq. 3) was determined S13

A short description of data set [2]: Predicted hepatic clearance (c). The data set is classed as in vitro ADME, c (presumably cynomolgus). As for the experimental part:
at half log concentrations in DMSO were further diluted in assay buffer. The compounds or DMSO vehicle were added to cells and incubated for 2.5 min and an EC20 concentration of glutamate was added and incubated for 1 min. An ECmax concentration of glutamate was also added to cells that were incubated with DMSO vehicle to accurately calculate the EC20 calcium response. Data were normalized by subtracting the basal florescent peak before EC20 agonist addition from the maximal peak elicited by EC20 agonist and PAMs. Using GraphPad Prism 5.0, the concentration response curves were generated and the potencies of the mGlu1 PAMs were determined.
Plasma protein binding: The protein binding of each compound was determined in plasma via equilibrium dialysis employing RED Plates (ThermoFisher Scientific, Rochester, NY). Plasma was added to the 96 well plate containing test compound and mixed thoroughly for a final concentration of 5 µM. […]
Each compound was assayed in triplicate within the same 96-well plate. Fraction unbound was determined using the following equation […]
After a 5 min preincubation, the reaction was initiated by addition of NADPH (1 mM). […] The in vitro half-life (T 1/2, min, Eq. 1), intrinsic clearance (CLint, mL/min/kg, Eq. 2) and subsequent predicted hepatic clearance (CLhep, mL/min/kg, Eq. 3) was determined […]

Another data set in a line: Kinetic solubility. The data set is classed as physicochemical. The following applies: kinetic from dmso stock.

In the case of `Cc1nc(C2CC2)ccc1CNC(=O)c1cc(-n2cccn2)ccc1Cl` [compound 8], the fraction unbound at 4 h, 5 µM in data set [1] was found to be 0.46. Moreover, the “Predicted CLhep (c)” value in data set [2] is 33.2 mL/min/kg. Also, the kinetic solubility – broadly, the concentration staying in solution when a stock, usually in DMSO, is diluted into the medium – in “Kinetic solubility” (pH 2.2, aqueous buffer, read-out: Kinetic solubility pH 2.2) was over 100 µM; in “Kinetic solubility” (pH 6.8, aqueous buffer, read-out: Kinetic solubility pH 6.8) it was under 1 µM.
